According to PubChem BioAssay (NCI):
“And” between values parts separate entries of the source, which are not always exact repeats. Identical values can stand only once.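 Where inhibition never reached the appropriate level, the endpoint shown equals the highest concentration tested. Otherwise, values were interpolated linearly from a five-concentration, 48-hour dose response in 96-well plates. GI50 = concentration required for 50% inhibition of growth. Definition used: TGI = concentration required for complete inhibition of growth.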

Assays:
Assay in all cases: DTP human tumour cell line panel, 48 h
[1] = tested on: ACHN renal
[2] = tested on: HOP-92 NSCLC
[3] = tested on: SW-620 colon
[4] = tested on: U251 CNS
[5] = tested on: SN12C renal
[6] = tested on: MALME-3M melanoma
[7] = tested on: NCI-H460 lung
[8] = tested on: NCI-H522 lung
[9] = tested on: K-562 leukemia
[10] = tested on: SNB-75 CNS

SMILES | TGI [1] | TGI [2] | TGI [3] | TGI [4] | TGI [5] | TGI [6] | TGI [7] | TGI [8] | TGI [9] | TGI [10] | GI50 [1] | GI50 [2] | GI50 [3] | GI50 [4] | GI50 [5] | GI50 [6] | GI50 [7] | GI50 [8] | GI50 [9] | GI50 [10]
Cc1cc(Cl)ccc1NC(=O)CC1SC(=Nc2ccccc2Cl)NC1=O (stereo not given) | > 100 µM | > 100 µM | > 100 µM | > 100 µM | > 100 µM | > 100 µM | > 100 µM | 80.4 µM | > 100 µM | > 100 µM |  |  |  |  |  |  |  |  |  | 
Cc1cccc(NC(=O)c2cccc([N+](=O)[O-])c2O)c1C | > 100 µM | 49.7 µM | > 100 µM | > 100 µM | > 100 µM | > 84.2 µM | > 69.6 µM | 58 µM | > 31.6 µM | 81.1 µM |  |  |  |  |  |  |  |  |  | 
CN(Cc1cc(C(C)(C)C)cc(Br)c1O)Cc1cc(C(C)(C)C)cc(Br)c1O | 9.01 µM | 12.8 µM | 16.9 µM | 8.15 µM | 15.2 µM | 13.7 µM | 4.72 µM | 7.33 µM | 14 µM | 13 µM |  |  |  |  |  |  |  |  |  | 
COc1cc(Nc2ncc(F)c(Nc3ccc4c(n3)N(COP(=O)(O)O)C(=O)C(C)(C)O4)n2)cc(OC)c1OC | 12.2 µM and > 10 µM | 4.23 µM and 1.87 µM | > 84.4 µM | > 100 µM | 16.6 µM and > 10 µM | 17.8 µM and > 10 µM | > 100 µM | 7.02 µM and 7.1 µM | > 100 µM | 1.52 µM | 1.12 µM and 1.21 µM | 1.25 µM and 0.345 µM | 3.6 µM and 3.98 µM | 7.55 µM and 2 µM | 1.01 µM and 1.05 µM | 3 µM and 5.93 µM | 3.59 µM and 3.45 µM | 1.53 µM and 1.24 µM | 5.3 µM and 3.41 µM | 0.319 µM
O=C(/C=C/c1ccc(C(F)(F)F)cc1)c1ccc(Nc2nc(NCCO)nc(Nc3ccc(Cl)cc3)n2)cc1 | 17 µM | 49.4 µM | 5.04 µM | 5.57 µM | 17.5 µM | 28.5 µM | 13.6 µM | 23.6 µM | > 100 µM | 8.71 µM | 4.81 µM | 5.39 µM | 2.17 µM | 2.18 µM | 5.53 µM | 13.9 µM | 4 µM | 7.82 µM | 2.83 µM | 2.05 µM
Cc1ncc(C(=O)Nc2ccc(CN3CCN(C)CC3)c(C(F)(F)F)c2)cc1C#Cc1cnc(N)cc1C#N | 2 µM | 1.38 µM | 3.2 µM | 4.02 µM | 2.32 µM | 0.125 µM | 2.84 µM | 3.24 µM | 3.21 µM | 3.44 µM | 0.189 µM | 0.0911 µM | 0.802 µM | 1.63 µM | 0.305 µM | 0.0196 µM | 0.417 µM | 0.405 µM | 0.00167 µM | 1.21 µM
CCN(CC)c1ccc(C(=O)c2ccc(N(CC)CC)cc2)cc1 | > 100 µM | 10.9 µM | 17 µM | 23.2 µM | 35.5 µM | 17.4 µM | 1.99 µM | 1.67 µM | 10.2 µM | > 83.6 µM | 0.935 µM | 0.776 µM | 0.326 µM | 0.504 µM | 0.787 µM | 0.334 µM | 0.372 µM | 0.278 µM | 0.15 µM | 0.458 µM
Cc1cnc(C(=O)NNc2nc3sc4c(c3c(=O)n2C)C(C)CCC4)cn1 (stereo not given) | 2.02 µM | 4.57 µM | 6.66 µM | 2.32 µM | 4.55 µM | 3.29 µM | 2.02 µM | 4.62 µM | > 100 µM | 5.78 µM | 0.308 µM | 0.724 µM | 0.408 µM | 0.228 µM | 0.51 µM | 0.544 µM | 0.194 µM | 0.328 µM | 0.433 µM | 0.56 µM
Cn1cc(-c2ccc(-c3ccc(C4=NC5(CC5)C(=O)N4C[C@@H]4CCN(C(=O)C5CC5)C4)cc3)cc2)cn1 | > 100 µM | > 100 µM | > 100 µM | 29 µM | 77.3 µM | 40.9 µM | 18 µM | 40.6 µM | > 100 µM | > 100 µM | 14.3 µM | 23.6 µM | 18.2 µM | 10.5 µM | 17.5 µM | 18.6 µM | 1.22 µM | 12.3 µM | 7.11 µM | 20 µM
COC(=O)Nc1nc2ccc(Br)cc2[nH]1 | > 100 µM | > 100 µM | > 100 µM | 87 µM | > 100 µM | > 100 µM | > 100 µM | 32.8 µM | > 100 µM | > 100 µM |  |  |  |  |  |  |  |  |  | 
Cc1cccc(C)c1NC(=O)C(=O)Nn1c(NN)nc2ccccc2c1=O | > 100 µM | > 100 µM | > 100 µM | > 100 µM | > 100 µM | > 100 µM | > 100 µM | > 100 µM | > 100 µM | > 100 µM |  |  |  |  |  |  |  |  |  | 
CN(C)c1ccc(/C=C/c2cc[n+](C)c(/C=C/c3ccc(N(C)C)cc3)c2)cc1 | 2.4 µM | 0.655 µM | 5.6 µM | 1.41 µM | 1.15 µM | 2.21 µM | 1.72 µM | 1.72 µM | 3.25 µM | 2.33 µM | 0.401 µM | 0.174 µM | 0.336 µM | 0.286 µM | 0.273 µM | 0.39 µM | 0.343 µM | 0.267 µM | 0.163 µM | 0.253 µM
Cn1cc2ccccc2c1-c1nc(F)nc(OCC(=O)[C@H]2CCC3[C@@H]4CCC5=CC(=O)CC[C@]5(C)C4[C@@H](O)C[C@@]32C)n1 (stereo not given in full) | 32.6 µM | 36.6 µM | 33.4 µM | 36 µM | 30.8 µM | 33.8 µM | 52.2 µM | 31.2 µM | 8.94 µM | 35.2 µM |  |  |  |  |  |  |  |  |  | 
C=C(c1ccccc1)[C@@]1(O)CC[C@@H]1N(CC#N)Cc1ccccc1 | 41.4 µM | 34.9 µM | 34.8 µM | > 100 µM | 46.8 µM | 27.5 µM | > 100 µM | 47.8 µM | > 74.3 µM | > 96.5 µM |  |  |  |  |  |  |  |  |  | 
CC(=O)OCC1OC(n2c(-c3ccc(C)cc3)cc(-c3ccccc3)c(C#N)c2=O)C(OC(C)=O)C(OC(C)=O)C1OC(C)=O (stereo not given) | > 100 µM | > 100 µM | > 100 µM | > 100 µM | > 100 µM | > 100 µM | > 100 µM | > 100 µM | > 100 µM | > 100 µM |  |  |  |  |  |  |  |  |  | 
CN(C)CCNC(=O)c1ccc(NC(=O)c2nc([N+](=O)[O-])cn2C)cc1 | > 100 µM | > 100 µM | > 100 µM | > 100 µM | > 100 µM | > 100 µM | > 100 µM | > 100 µM | > 100 µM | > 100 µM |  |  |  |  |  |  |  |  |  | 
